For data set [1], the system named is rats with dry eye syndrome (extraorbital lacrimal gland excision, ELGE). The data set is described as follows: Amount of tear secretion (Schirmer test, cobalt chloride paper) in rats with ELGE-induced dry eye syndrome. It counts as in vivo, rat. The note with it: 0.3% solution (DS 3%), administration for 14 days.
Source text: (§1) In order to evaluate the eye protection effect on dry eye syndrome by YDE-001 to YDE-028 prepared in Working Example 1, a total of 320 Sprague-Dawley-type male rats (OrientBio, Seungnam, Korea) were adapted for 7 days. Thereafter, dry eye syndrome was induced in 264 test rats through extraorbital lacrimal gland excision (hereinafter, ELGE). 8 test rats without the eye abnormality were subjected to a sham operation as a control group.
(§2) The rats were systemically anesthetized by inhaling a mixed gas of 2% to 3% of isoflurane (Hana Pharm. Co., Hwasung, Korea), 70% of N2O, and 28.6% of O2 using a rodent anesthesia machine (Surgivet, Waukesha, Wis., USA) and a ventilator (Model 687, Harvard Apparatus, Cambridge, UK). Thereafter, the extraorbital lacrimal gland located in the subdermal area above the masseter muscle and under the optic nerve was excised through a transverse incision in a size of 10 mm on the anterior part of the left ear tragus. The skin was sutured by a general method. […] After 6 days following the ELGE operation, confirmation was performed through the Schirmer test by measuring the amount of tear secretion whether dry eye syndrome had been induced. Meanwhile, each rat of the control group with the sham operation was checked for the presence and location of the extraorbital lacrimal gland through a skin incision, and the skin was then sutured without the excision thereof (FIG. 134).
(§3) In addition, in order to evaluate the eye protection effect on dry eye syndrome by YDE-029 to YDE-043 prepared in Working Example 1, a total of 200 Sprague-Dawley-type male rats (OrientBio, Seungnam, Korea) were adapted for 7 days. Dry eye syndrome was induced in 165 test rats through the ELGE. 8 test rats without the eye abnormality were subjected to the sham operation as a control group. The ELGE was carried out as described above.
(§4) For YDE-001 to YDE-028, YY-102 and the 28 YDE-series were each dissolved in physiological saline at a concentration of 3 mg/ml and administered at a dose of 5 μl/eye at 9:30 am and 3:30 pm daily for 14 days after 7 days from the ELGE operation for a total of 28 times. The DS solution was dissolved in physiological saline at a concentration of 30 mg/ml and administered at a dose of 5 μl/eye twice a day for 14 days after 7 days from the ELGE operation for a total of 28 times. For the sham control and the ELGE control groups, the same stimulation as the administration was applied. In order to prevent excessive eye dryness, the same volume of physiological saline was applied in the same manner in place of the test substances.
as §4, with “Further, For YDE-029” for “For YDE-001”, “Further, For YDE-029 to YDE-043,” for “For YDE-001 to YDE-028,”, “YDE-029 to YDE-043, YY-102 and” for “YDE-001 to YDE-028, YY-102 and”, “and the 15 YDE-series were” for “and the 28 YDE-series were”, “the test substances (FIG. 137).” for “the test substances.”
After 6 days from the ELGE surgery, the changes in the amount of tear secretion were measured at day 7 and day 14 after the administration of YDE-001 to YDE-043. The amount of tear secretion was measured by the […] travel distance of tears absorbed by cobalt chloride paper in a size of 1×15 mm (Toyo Roshi Kaisha, Japan).
The cobalt chloride paper was placed in the lateral canthus of a rat for 60 seconds to absorb tears (FIG. 139). The length of the area absorbed from the corner of the cobalt chloride paper was measured with an electronic digital caliper (Mytutoyo, Tokyo, Japan) (FIG. 138).

Data set [2] deals with cornea of rats with dry eye syndrome (ELGE). In words: Corneal permeability of fluorescent dye (corneal damage) in rats with ELGE-induced dry eye syndrome. It counts as in vivo, rat. The note with it: 0.3% solution, day 14 after the administration.
Source text: as §1, §2, §3, §4
as §4, with “Further, For YDE-029” for “For YDE-001”, “Further, For YDE-029 to YDE-043,” for “For YDE-001 to YDE-028,”, “YDE-029 to YDE-043, YY-102 and” for “YDE-001 to YDE-028, YY-102 and”, “and the 15 YDE-series were” for “and the 28 YDE-series were”, “the test substances (FIG. 137).” for “the test substances.”
After YDE-001 to YDE-028 were each administered to the eyes […], the changes in the corneal permeability were checked.
In order to measure the corneal permeability, Zolethyl 50™ (Virbac Lab., Carros, France), an animal anesthetic, was intraperitoneally injected at a dose of 25 mg/kg. Thereafter, saline containing a 1% (v/v) fluorescent solution (fluorescein sodium salt, Tokyo Kasei Kogyo Co., Tokyo, Japan) was applied to the eyes at a dose of 5 μl/eye. The eyes thus treated were closed and fixed with a tape. After 1 hour, the remaining fluorescent solution was removed using a cotton swab (FIG. 142). […]

The nature of data set [3]: Stability in aqueous solution, amount of related substances under long-term storage conditions. It counts as physicochemical. As to conditions: glass vial, 25° C., 75% RH. How it is done:
In order to confirm the stability of each test substance in an aqueous solution, […] of each sample was dissolved in 1 ml of water to a concentration of 1 mg/ml, which was then charged to a glass vial, plugged with a rubber cap, sealed with an aluminum cap, and stored under long-term storage conditions (25° C., 75% RH). The stability of the test substance was evaluated by measuring the amount of related substances at the time of one week, two weeks, four weeks, eight weeks, and twelve weeks under the long-term storage conditions.

Setting [4] is: study of YDE-001 to YDE-028 (Table 16).
Where [5] appears, read: study of YDE-029 to YDE-043 (Table 17).

Non-standard residues stand in square brackets, D forms with d. Residues, ends and D or L forms follow the SMILES beside them. cisHyp = O=C(O)[C@@H]1C[C@H](O)CN1; Hyp = O=C(O)[C@@H]1C[C@@H](O)CN1

In the case of `COC(=O)C[C@H](NC(=O)[C@H](CCC(N)=O)NC(=O)CNC(=O)[C@@H]1C[C@@H](O)CN1)C(=O)NCC(=O)N[C@@H](CC(C)C)C(=O)N[C@@H](C)C(=O)NCC(=O)N1CCC[C@H]1C(=O)N[C@@H](CCCCN)C(=O)O` [YDE-027, HyP-Gly-Gln-Asp(Me)-Gly-Leu-Ala-Gly-Pro-Lys] (H-[Hyp]GQD(OMe)GLAGPK-OH), the “Amount of tear secretion as compared with the ELGE control group” value in data set [1] (study of YDE-001 to YDE-028) is “did not show any significant changes”. The “Permeability of fluorescent dye (%)” value in data set [2] (setting [4]) is 50.24 ± 11.94%. In data set [3], the “Amount of related substances (%; after 12 weeks)” value (“Amount … (%; after 12 weeks)” for short) is reported as 12.74%.

Turning to `CC(C)C[C@H](NC(=O)[C@H](CC(C)C)NC(=O)[C@H](CC(=O)O)NC(=O)[C@H](CCC(N)=O)NC(=O)CNC(=O)[C@@H]1C[C@@H](O)CN1)C(=O)N[C@@H](C)C(=O)NCC(=O)N1CCC[C@H]1C(=O)N[C@@H](CCCCN)C(=O)O` [YDE-017, HyP-Gly-Gln-Asp-Leu-Leu-Ala-Gly-Pro-Lys] (H-[Hyp]GQDLLAGPK-OH), the “Amount of tear secretion as compared with the ELGE control group” value in data set [1] (study of YDE-001 to YDE-028) is “did not show any significant changes”. Besides, in data set [2] (setting [4]), the “Permeability of fluorescent dye (%)” value was 39.76 ± 7.42%. The “Amount … (%; after 12 weeks)” value in data set [3] was determined as 11.88%.

For `CC(C)C[C@H](NC(=O)CNC(=O)[C@H](CC(C)C)NC(=O)[C@H](CCC(N)=O)NC(=O)CNC(=O)[C@@H]1C[C@@H](O)CN1)C(=O)N[C@@H](C)C(=O)NCC(=O)N1CCC[C@H]1C(=O)N[C@@H](Cc1ccc(O)cc1)C(=O)O` [YDE-029, HyP-Gly-Gln-Leu-Gly-Leu-Ala-Gly-Pro-Tyr] (H-[Hyp]GQLGLAGPY-OH), the “Amount of tear secretion as compared with the ELGE control group” value in data set [1] (study of YDE-029 to YDE-043) is reported as “did not show any significant changes”. In addition, the “Permeability of fluorescent dye (%)” value in data set [2] (setting [5]) is given as 63.45 ± 11.57%.

With `CC(C)C[C@H](NC(=O)[C@H](Cc1ccccc1)NC(=O)[C@H](CC(=O)O)NC(=O)[C@H](CCC(N)=O)NC(=O)CNC(=O)[C@@H]1C[C@@H](O)CN1)C(=O)N[C@@H](C)C(=O)NCC(=O)N1CCC[C@H]1C(=O)N[C@@H](CCCCN)C(=O)O` [YDE-019, HyP-Gly-Gln-Asp-Phe-Leu-Ala-Gly-Pro-Lys] (H-[Hyp]GQDFLAGPK-OH), in data set [1] (study of YDE-001 to YDE-028), the “Amount of tear secretion as compared with the ELGE control group” value is listed as “did not show any significant changes”. The “Permeability of fluorescent dye (%)” value in data set [2] (setting [4]) was 40.39 ± 12.57%. The “Amount … (%; after 12 weeks)” value in data set [3] was 13.43%.

Take `CC(C)C[C@H](NC(=O)[C@H](Cc1ccc(O)cc1)NC(=O)[C@H](CC(=O)O)NC(=O)[C@H](CCC(N)=O)NC(=O)CNC(=O)[C@@H]1C[C@@H](O)CN1)C(=O)N[C@@H](C)C(=O)NCC(=O)N1CCC[C@H]1C(=O)N[C@@H](CCCCN)C(=O)O` [YDE-020, HyP-Gly-Gln-Asp-Tyr-Leu-Ala-Gly-Pro-Lys] (H-[Hyp]GQDYLAGPK-OH): in data set [1] (study of YDE-001 to YDE-028), the “Amount of tear secretion as compared with the ELGE control group” value is listed as “did not show any significant changes”. Further, the “Permeability of fluorescent dye (%)” value in data set [2] (setting [4]) turned out to be 47.84 ± 13.47%. For the same molecule, in data set [3], the “Amount … (%; after 12 weeks)” value was 21.54%.

For `CC(C)C[C@H](NC(=O)CNC(=O)[C@H](CC(C)C)NC(=O)[C@H](CCC(N)=O)NC(=O)CNC(=O)[C@@H]1C[C@H](O)CN1)C(=O)N[C@@H](C)C(=O)NCC(=O)N1CCC[C@H]1C(=O)N[C@@H](CCCCN)C(=O)O` [YDE-034, Hyp(2S, 4S)-Gly-Gln-Leu-Gly-Leu-Ala-Gly-Pro-Lys] (H-[cisHyp]GQLGLAGPK-OH), in data set [1] (study of YDE-029 to YDE-043), the “Amount of tear secretion as compared with the ELGE control group” value was “did not show any significant changes”. Also, the “Permeability of fluorescent dye (%)” value in data set [2] (setting [5]) came out at 32.17 ± 12.94%.

For the molecule `CC(C)C[C@H](NC(=O)[C@@H]1CCCN1C(=O)CNC(=O)[C@H](C)NC(=O)[C@H](CC(C)C)NC(=O)CNC(=O)[C@H](CC(C)C)NC(=O)[C@H](CCC(N)=O)NC(=O)CNC(=O)[C@@H]1C[C@@H](O)CN1)C(=O)O` [YDE-030, HyP-Gly-Gln-Leu-Gly-Leu-Ala-Gly-Pro-Leu] (H-[Hyp]GQLGLAGPL-OH), the “Amount of tear secretion as compared with the ELGE control group” value in data set [1] (study of YDE-029 to YDE-043) is on record as “did not show any significant changes”. In addition, the “Permeability of fluorescent dye (%)” value in data set [2] (setting [5]) was determined as 30.60 ± 13.61%.
